According to PubChem BioAssay (NCI):
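Cultured in 96-well plates, cells were exposed to test compound for 48 hours across five concentrations. GI50 marks 50% less growth. At the TGI there is no net growth.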

What was measured:
Experiment in all cases: NCI anticancer screen, dose series, 48 h
A549 NSCLC = test system: A549 NSCLC
MOLT-4 leukemia = test system: MOLT-4 leukemia
NCI-H460 lung = test system: NCI-H460 lung
M14 melanoma = test system: M14 melanoma
HT29 colon = test system: HT29 colon
SK-MEL-2 melanoma = test system: SK-MEL-2 melanoma
UACC-257 melanoma = test system: UACC-257 melanoma
CCRF-CEM leukemia = test system: CCRF-CEM leukemia
SF-268 CNS = test system: SF-268 CNS
COLO 205 colon = test system: COLO 205 colon
MCF7 breast = test system: MCF7 breast
CAKI-1 renal = test system: CAKI-1 renal
HL-60(TB) leukemia = test system: HL-60(TB) leukemia
NCI/ADR-RES ovarian = test system: NCI/ADR-RES ovarian
UO-31 renal = test system: UO-31 renal
KM12 colon = test system: KM12 colon
HCT-116 colon = test system: HCT-116 colon
HOP-62 NSCLC = test system: HOP-62 NSCLC
OVCAR-4 ovarian = test system: OVCAR-4 ovarian
SNB-19 CNS = test system: SNB-19 CNS
NCI-H226 lung = test system: NCI-H226 lung
SW-620 colon = test system: SW-620 colon
OVCAR-3 ovarian = test system: OVCAR-3 ovarian
HOP-92 NSCLC = test system: HOP-92 NSCLC
T-47D breast = test system: T-47D breast
HCT-15 colon = test system: HCT-15 colon
SK-MEL-5 melanoma = test system: SK-MEL-5 melanoma
SR leukemia = test system: SR leukemia
HCC-2998 colon = test system: HCC-2998 colon
SF-539 CNS = test system: SF-539 CNS
IGROV1 ovarian = test system: IGROV1 ovarian
PC-3 prostate = test system: PC-3 prostate
RXF 393 renal = test system: RXF 393 renal
BT-549 breast = test system: BT-549 breast
OVCAR-8 ovarian = test system: OVCAR-8 ovarian
SNB-75 CNS = test system: SNB-75 CNS
MDA-MB-435 = test system: MDA-MB-435
SK-OV-3 ovarian = test system: SK-OV-3 ovarian
NCI-H23 lung = test system: NCI-H23 lung
U251 CNS = test system: U251 CNS
EKVX NSCLC = test system: EKVX NSCLC
SF-295 CNS = test system: SF-295 CNS
RPMI-8226 leukemia = test system: RPMI-8226 leukemia
MALME-3M melanoma = test system: MALME-3M melanoma
786-0 renal = test system: 786-0 renal
OVCAR-5 ovarian = test system: OVCAR-5 ovarian
SN12C renal = test system: SN12C renal
SK-MEL-28 melanoma = test system: SK-MEL-28 melanoma
HS 578T breast = test system: HS 578T breast
DU-145 prostate = test system: DU-145 prostate
ACHN renal = test system: ACHN renal
UACC-62 melanoma = test system: UACC-62 melanoma
K-562 leukemia = test system: K-562 leukemia
A498 renal = test system: A498 renal
TK-10 renal = test system: TK-10 renal
MDA-MB-231 breast = test system: MDA-MB-231 breast
LOX IMVI melanoma = test system: LOX IMVI melanoma

Which GI50 (A549 NSCLC) does the source give for `O=C(Nc1cc(Cl)cc(Cl)c1)Nc1nc2ccc([N+](=O)[O-])cc2s1` here?
Its GI50 is 1700 nM.

And the TGI (A549 NSCLC)?
The TGI was > 100000 nM.

And the GI50 (MOLT-4 leukemia)?
The GI50 was 685 nM.

And the TGI (MOLT-4 leukemia)?
Its TGI is 3230 nM.

What about the GI50 (NCI-H460 lung) of the same molecule?
The GI50 was 1480 nM.

What about the TGI (NCI-H460 lung) of the same molecule?
Its TGI is > 100000 nM.

And the GI50 (M14 melanoma)?
Its GI50 is 1880 nM.

And the TGI (M14 melanoma)?
The TGI was 5790 nM.

What about the GI50 (HT29 colon) of the same molecule?
Its GI50 is 1610 nM.

And the TGI (HT29 colon)?
The TGI was > 100000 nM.

And the GI50 (SK-MEL-2 melanoma)?
Its GI50 is 771 nM.

What about the TGI (SK-MEL-2 melanoma) of the same molecule?
The TGI was 3830 nM.

What about the GI50 (UACC-257 melanoma) of the same molecule?
Its GI50 is 950 nM.

What about the TGI (UACC-257 melanoma) of the same molecule?
The TGI was 4840 nM.

What about the GI50 (CCRF-CEM leukemia) of the same molecule?
The GI50 was 429 nM.

And the TGI (CCRF-CEM leukemia)?
Its TGI is 3880 nM.

What about the GI50 (SF-268 CNS) of the same molecule?
The GI50 was 1610 nM.

What about the TGI (SF-268 CNS) of the same molecule?
The TGI was > 100000 nM.

And the GI50 (COLO 205 colon)?
The GI50 was 646 nM.

And the TGI (COLO 205 colon)?
Its TGI is 2210 nM.

And the GI50 (MCF7 breast)?
The GI50 was 717 nM.

What about the TGI (MCF7 breast) of the same molecule?
The TGI was > 100000 nM.

What about the GI50 (CAKI-1 renal) of the same molecule?
Its GI50 is 992 nM.

And the TGI (CAKI-1 renal)?
The TGI was 8470 nM.

What about the GI50 (HL-60(TB) leukemia) of the same molecule?
The GI50 was 714 nM.

What about the TGI (HL-60(TB) leukemia) of the same molecule?
The TGI was 2860 nM.

What about the GI50 (NCI/ADR-RES ovarian) of the same molecule?
Its GI50 is 800 nM.

What about the TGI (NCI/ADR-RES ovarian) of the same molecule?
Its TGI is 6200 nM.

And the GI50 (UO-31 renal)?
Its GI50 is 708 nM.

And the TGI (UO-31 renal)?
The TGI was 2800 nM.

And the GI50 (KM12 colon)?
The GI50 was 1160 nM.

And the TGI (KM12 colon)?
The TGI was 7330 nM.

And the GI50 (HCT-116 colon)?
The GI50 was 570 nM.

What about the TGI (HCT-116 colon) of the same molecule?
The TGI was 4760 nM.

And the GI50 (HOP-62 NSCLC)?
The GI50 was 1780 nM.

What about the TGI (HOP-62 NSCLC) of the same molecule?
The TGI was 5500 nM.

And the GI50 (OVCAR-4 ovarian)?
The GI50 was 583 nM.

What about the TGI (OVCAR-4 ovarian) of the same molecule?
Its TGI is > 100000 nM.

And the GI50 (SNB-19 CNS)?
The GI50 was 1190 nM.

What about the TGI (SNB-19 CNS) of the same molecule?
The TGI was 25700 nM.

And the GI50 (NCI-H226 lung)?
The GI50 was 1040 nM.

What about the TGI (NCI-H226 lung) of the same molecule?
The TGI was 3150 nM.

And the GI50 (SW-620 colon)?
Its GI50 is 1630 nM.

And the TGI (SW-620 colon)?
The TGI was 85700 nM.

And the GI50 (OVCAR-3 ovarian)?
The GI50 was 722 nM.

What about the TGI (OVCAR-3 ovarian) of the same molecule?
Its TGI is 8200 nM.

And the GI50 (HOP-92 NSCLC)?
Its GI50 is 212 nM.

And the TGI (HOP-92 NSCLC)?
Its TGI is 670 nM.

And the GI50 (T-47D breast)?
Its GI50 is 571 nM.

What about the TGI (T-47D breast) of the same molecule?
The TGI was 6150 nM.

What about the GI50 (HCT-15 colon) of the same molecule?
Its GI50 is 769 nM.

What about the TGI (HCT-15 colon) of the same molecule?
Its TGI is > 100000 nM.

What about the GI50 (SK-MEL-5 melanoma) of the same molecule?
Its GI50 is 446 nM.

What about the TGI (SK-MEL-5 melanoma) of the same molecule?
Its TGI is 1660 nM.

What about the GI50 (SR leukemia) of the same molecule?
The GI50 was 320 nM.

What about the TGI (SR leukemia) of the same molecule?
The TGI was 2100 nM.

What about the GI50 (HCC-2998 colon) of the same molecule?
Its GI50 is 503 nM.

And the TGI (HCC-2998 colon)?
The TGI was 4070 nM.

What about the GI50 (SF-539 CNS) of the same molecule?
Its GI50 is 1180 nM.

What about the TGI (SF-539 CNS) of the same molecule?
Its TGI is 5430 nM.

What about the GI50 (IGROV1 ovarian) of the same molecule?
The GI50 was 1770 nM.

What about the TGI (IGROV1 ovarian) of the same molecule?
The TGI was 84500 nM.

What about the GI50 (PC-3 prostate) of the same molecule?
The GI50 was 568 nM.

And the TGI (PC-3 prostate)?
Its TGI is > 100000 nM.

What about the GI50 (RXF 393 renal) of the same molecule?
Its GI50 is 558 nM.

And the TGI (RXF 393 renal)?
Its TGI is 2170 nM.

What about the GI50 (BT-549 breast) of the same molecule?
The GI50 was 1680 nM.

What about the TGI (BT-549 breast) of the same molecule?
The TGI was 4660 nM.

What about the GI50 (OVCAR-8 ovarian) of the same molecule?
The GI50 was 1740 nM.

And the TGI (OVCAR-8 ovarian)?
Its TGI is > 100000 nM.

What about the GI50 (SNB-75 CNS) of the same molecule?
Its GI50 is 1040 nM.

And the TGI (SNB-75 CNS)?
The TGI was 3830 nM.

And the GI50 (MDA-MB-435)?
Its GI50 is 1510 nM.

What about the TGI (MDA-MB-435) of the same molecule?
Its TGI is 6770 nM.

And the GI50 (SK-OV-3 ovarian)?
Its GI50 is 1450 nM.

What about the TGI (SK-OV-3 ovarian) of the same molecule?
Its TGI is 5600 nM.

And the GI50 (NCI-H23 lung)?
The GI50 was 378 nM.

And the TGI (NCI-H23 lung)?
The TGI was 2310 nM.

And the GI50 (U251 CNS)?
Its GI50 is 909 nM.

What about the TGI (U251 CNS) of the same molecule?
Its TGI is > 100000 nM.

And the GI50 (EKVX NSCLC)?
Its GI50 is 1140 nM.

And the TGI (EKVX NSCLC)?
The TGI was 7630 nM.

What about the GI50 (SF-295 CNS) of the same molecule?
The GI50 was 524 nM.

And the TGI (SF-295 CNS)?
The TGI was 1920 nM.

And the GI50 (RPMI-8226 leukemia)?
Its GI50 is 376 nM.

And the TGI (RPMI-8226 leukemia)?
The TGI was 1590 nM.

And the GI50 (MALME-3M melanoma)?
Its GI50 is 518 nM.

And the TGI (MALME-3M melanoma)?
The TGI was 5720 nM.

What about the GI50 (786-0 renal) of the same molecule?
Its GI50 is 1470 nM.

What about the TGI (786-0 renal) of the same molecule?
The TGI was 5860 nM.

What about the GI50 (OVCAR-5 ovarian) of the same molecule?
Its GI50 is 2650 nM.

What about the TGI (OVCAR-5 ovarian) of the same molecule?
Its TGI is > 100000 nM.

And the GI50 (SN12C renal)?
The GI50 was 752 nM.

What about the TGI (SN12C renal) of the same molecule?
The TGI was 5620 nM.

What about the GI50 (SK-MEL-28 melanoma) of the same molecule?
Its GI50 is 1030 nM.

What about the TGI (SK-MEL-28 melanoma) of the same molecule?
Its TGI is 3580 nM.

And the GI50 (HS 578T breast)?
Its GI50 is 999 nM.

What about the TGI (HS 578T breast) of the same molecule?
The TGI was 4720 nM.

What about the GI50 (DU-145 prostate) of the same molecule?
Its GI50 is 1720 nM.

What about the TGI (DU-145 prostate) of the same molecule?
Its TGI is > 100000 nM.

What about the GI50 (ACHN renal) of the same molecule?
The GI50 was 1370 nM.

And the TGI (ACHN renal)?
Its TGI is 21800 nM.

And the GI50 (UACC-62 melanoma)?
Its GI50 is 569 nM.

What about the TGI (UACC-62 melanoma) of the same molecule?
The TGI was 2210 nM.

What about the GI50 (K-562 leukemia) of the same molecule?
The GI50 was 504 nM.

And the TGI (K-562 leukemia)?
Its TGI is > 24300 nM.

What about the GI50 (A498 renal) of the same molecule?
Its GI50 is 287 nM.

What about the TGI (A498 renal) of the same molecule?
The TGI was 1040 nM.

And the GI50 (TK-10 renal)?
The GI50 was 2210 nM.

What about the TGI (TK-10 renal) of the same molecule?
Its TGI is 13300 nM.

What about the GI50 (MDA-MB-231 breast) of the same molecule?
Its GI50 is 1190 nM.

And the TGI (MDA-MB-231 breast)?
The TGI was 4120 nM.

And the GI50 (LOX IMVI melanoma)?
The GI50 was 839 nM.

What about the TGI (LOX IMVI melanoma) of the same molecule?
The TGI was 2440 nM.
